Assay results taken from patent US4650888A, “Pentaerythritol derivative” (Chugai Seiyaku Kabushiki Kaisha, priority 1984, dated 1987).

Tested on: Shay rats (pylorus-ligated, gastric ulcers in the forestomach)
Experiment: Anti-ulcer activity on Shay rats
Type: in vivo
Details: male SD rats, 300 mg/kg orally, 16 hours
Experimental: Anti-ulcer activity on Shay rats:
Male SD rats (180-200 g) were deprived of food for 48 hours and had free access to water. Under ether anesthesia the abdomen of each rat was incised and the pylorus ligated. Concurrently the test complex was orally administered and the abdomen was closed. The animals were killed 16 hours later by an overdose, and the stomach of each rat removed. The stomach was incised along the greater curvature and examined for gastric ulcers developed in the forestomach. The damaged mucosa in shay ulcers was measured under a dissecting microscope (x10) with a square grid, summed, and arbitrarily classified into 5 degrees by an erosion index.

O=S(=O)([O-])OCC(COCC(COS(=O)(=O)[O-])(COS(=O)(=O)[O-])COS(=O)(=O)[O-])(COS(=O)(=O)[O-])COS(=O)(=O)[O-].[Na+].[Na+].[Na+].[Na+].[Na+].[Na+] [Na salt, Sodium salt of sulfuric acid ester of dipentaerythritol]
Erosion Index (mean ± SE): 1.4 ± 0.2 | Percent Inhibition (%) (versus control (H2O)): 58.8%
